Assay [1] has as its system target genes of the PPARs. In words: Expression of target genes of the PPARs in liver and skeletal muscle of the E2/E2 mouse, quantitative RT-PCR. Type of assay: in vivo. To be noted: 50 mpk, 13 days. From the text:
The PPARα agonistic properties of the molecules according to the invention previously measured in vitro must be reflected at the hepatic level in a modulation of the expression of the target genes directly under the control of the PPARα receptor. The genes that were investigated in this experiment are the genes coding for PDK4 (pyruvate dehydrogenase kinase isoform 4, enzyme of carbohydrate metabolism), for AcoX1 (the AcoX1 present in the mouse corresponds to the gene of ACO in humans (acyl co-enzyme A oxidase, a key enzyme in the mechanism of the β-oxidation of fatty acids)) and for Apo CIII (an apolipoprotein involved in lipid metabolism).
The PPARδ agonistic properties of the molecules according to the invention previously measured in vitro should also be reflected, at the level of the skeletal muscle, in overexpression of the target genes directly under the control of the PPARδ receptor. The genes that were investigated in this experiment are the genes coding for PDK4 (pyruvate dehydrogenase kinase isoform 4, enzyme of carbohydrate metabolism) and UCP2 (uncoupling protein 2, mitochondrial transporter involved in thermoregulation).
Apo E2/E2 transgenic mice were kept under a cycle of light and darkness of 12/12 hours at a constant temperature of 20±3° C. After acclimation for one week, the mice were weighed and put into groups of 6 animals selected so that the distribution of their body weights and of their plasma lipid levels determined for the first time before the experiment are uniform. The test compounds were suspended in carboxymethylcellulose (Sigma C4888) and administered by intragastric force feeding, at a rate of once per day for 13 days at the chosen dose. The animals had free access to water and to food (standard diet). At the end of the experiment, the animals were anesthetized after fasting for 4 hours, a blood sample was taken using anticoagulant (EDTA), then the mice were weighed and euthanased. The plasma was separated by centrifugation at 3000 rev/min for 20 minutes, and the samples were stored at +4° C.
Samples of liver and of skeletal muscle tissue were taken and frozen immediately in liquid nitrogen and then stored at −80° C. for later analyses.
The total RNA was extracted from fragments of liver using the NucleoSpin® 96 RNA kit (Macherey Nagel, Hoerdt, France) following the manufacturer's instructions. […]
1 μg of total RNA (quantified by spectrophotometry) was then reverse-transcribed to complementary DNA by reaction for 1 hour at 37° C. in a total volume of 30 μl containing buffer 1× (Invitrogen), 1.5 mM of DTT, 0.18 mM of dNTPs (Promega), 200 ng of pdN6 (Amersham), 30 U of RNase inhibitor (Promega) and 1 μl of MMLV-RT (Invitrogen).
The quantitative PCR experiments were carried out using the MyiQ Single-Color Real-Time PCR Detection System (Biorad, Marnes-la-Coquette, France) and were performed using the iQ SYBR Green Supermix kit following the supplier's recommendations, in 96-well plates, on 5 μl of diluted reverse transcription reaction mixture with a hybridization temperature of 60° C. […]
In both cases (hepatic tissue and skeletal muscle tissue), the amount of fluorescence emitted is directly proportional to the amount of complementary DNA present at the start of the reaction and amplified during PCR. […] The relative expression levels of each target are thus determined using the efficacy curves obtained with the points in the range. […]

A further assay concerns the target T1, hPPARdelta (Homo sapiens, UniProt Q03181).
T1 construct: expressed in transfected cells; host or cells: COS-7 (monkey kidney fibroblasts)
T1 sequence (Q03181 211-439 limits assumed): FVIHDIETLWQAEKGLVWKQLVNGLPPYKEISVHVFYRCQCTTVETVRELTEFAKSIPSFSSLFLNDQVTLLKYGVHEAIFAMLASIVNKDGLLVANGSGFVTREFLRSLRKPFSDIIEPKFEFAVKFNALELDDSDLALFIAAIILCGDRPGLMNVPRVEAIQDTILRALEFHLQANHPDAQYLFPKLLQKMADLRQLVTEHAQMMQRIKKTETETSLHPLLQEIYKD
The experiment in a line: PPAR activation: Gal4-hPPARδ chimera luciferase transactivation in COS-7 cells, Method 2. Format: cell-based. The settings on record: COS-7, 24 h. Put shortly:
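COS-7 cells were transfected with Gal4-PPAR LBD chimera plus Gal4(RE)_TkpGL3 luciferase reporter (1/10) and seeded serum-free for 4 h. Compounds at 10^−5 to 100 μm were applied for 24 h at 37° C in 1% lipid-free synthetic serum. Luciferase was read after lysis, and EC50 derived.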

In the case of `CC(C)(Oc1ccc(CCC(=O)c2ccc(-c3ccc(C(F)(F)F)cc3)s2)c(Cl)c1Cl)C(=O)O` [Compound 2, 2-(2,3-dichloro-4-(3-oxo-3-(5-(4-(trifluoromethyl)phenyl)thien-2-yl)propyl)phenoxy)-2-methylpropanoic acid], in assay [1] (liver), the “hepatic expression of the gene coding for AcoX1” value is “significant increase”, the “hepatic expression of the gene coding for ApoCIII” value is “decrease” and the “hepatic expression of the gene coding for PDK4” value was “significant increase”. In addition, in assay [1] (skeletal muscle), the “expression of the gene coding for PDK4 in the skeletal muscle” value was “significant increase” and the “expression of the gene coding for UCP2 in the skeletal muscle” value is given as “significant increase”.
`CC(C)(Oc1ccc(CCC(OCc2ccccc2)c2ccc(-c3ccc(C(F)(F)F)cc3)s2)c(Cl)c1Cl)C(=O)O` (stereo not shown) [Compound 7, 2-(4-(3-(benzyloxy)-3-(5-(4-(trifluoromethyl)phenyl)thien-2-yl)propyl)-2,3-dichlorophenoxy)-2-methylpropanoic acid]: the EC50 (in general, the concentration giving half of the maximal effect) at hPPARdelta (1% Ultroser) was 30 nM. Moreover, the Emax at hPPARdelta (maximum percentage response relative to the reference GW501516, read-out: hPPARdelta % max) stood at 92%.

(Values after US8088819B2, “Derivatives of substituted 3-phenyl-1-(phenylthienyl)propan-1-ones and of 3-phenyl-1-(phenylfuranyl) propan-1-ones, preparation and use” (priority 2006, dated 2012).)
